Data from the supplement of paper PMC4862054.

Columns and labels:
Details in all cases: incubation time: 72 h
CAL-85-1 [1] = experiment: normalised viability (% of control), CellTiter-Blue; higher = more viable cells (100 = DMSO, 0 = benzethonium chloride kill control)
Procedure: (§1)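 DSRT, CellTiter-Blue viability, 72 h incubation. Signal is normalised to DMSO and benzethonium chloride controls. Value is the normalised response at dose 1.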

BT-549 [2] = experiment: as above
Procedure: as §1

HDQ-P1 [3] = experiment: as above
Procedure: as §1

MDA-MB-436 [4] = experiment: as above
Procedure: as §1

MDA-MB-231 [5] = experiment: as above
Procedure: as §1

MDA-MB-468 [6] = experiment: as above
Procedure: as §1

BT-474 [7] = experiment: as above
Procedure: as §1

CAL-148 [8] = experiment: as above
Procedure: as §1

HCC1599 [9] = experiment: as above
Procedure: as §1

HCC1143 [10] = experiment: as above
Procedure: as §1

MDA-MB-453 [11] = experiment: as above
Procedure: as §1

CAL-120 [12] = experiment: as above
Procedure: as §1

DU-4475 [13] = experiment: as above
Procedure: as §1

HCC1937 [14] = experiment: as above
Procedure: as §1

CAL-51 [15] = experiment: as above
Procedure: as §1

Hs578T [16] = experiment: as above
Procedure: as §1

SK-BR-3 [17] = experiment: as above
Procedure: as §1

MFM-223 [18] = experiment: as above
Procedure: as §1

CAL-85-1 [19] = experiment: normalised response (% of control), CellTiter-Glo; higher = more viable cells (100 = DMSO, 0 = benzethonium chloride kill control)
In short: (§2)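 Normalised signals at single concentrations make up the values. They come from breast cancer cell lines seeded (20 µl suspension) into 384-well plates with compound at 5 concentrations in 10-fold steps over a compound-specific 10,000-fold range, incubated 72 h, and read for CellTox Green fluorescence then CellTiter-Glo luminescence. Each plate was normalised to 0.1 % DMSO (100) and a positive kill control (0).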

BT-549 [20] = experiment: as above
In short: as §2

HDQ-P1 [21] = experiment: as above
In short: as §2

MDA-MB-436 [22] = experiment: as above
In short: as §2

MDA-MB-231 [23] = experiment: as above
In short: as §2

MDA-MB-468 [24] = experiment: as above
In short: as §2

BT-474 [25] = experiment: as above
In short: as §2

CAL-148 [26] = experiment: as above
In short: as §2

HCC1599 [27] = experiment: as above
In short: as §2

HCC1143 [28] = experiment: as above
In short: as §2

MCF-10A = experiment: as above
In short: as §2

MDA-MB-453 [29] = experiment: as above
In short: as §2

CAL-120 [30] = experiment: as above
In short: as §2

DU-4475 [31] = experiment: as above
In short: as §2

HCC1937 [32] = experiment: as above
In short: as §2

CAL-51 [33] = experiment: as above
In short: as §2

Hs578T [34] = experiment: as above
In short: as §2

SK-BR-3 [35] = experiment: as above
In short: as §2

MFM-223 [36] = experiment: as above
In short: as §2

SMILES | normalised viability (CAL-85-1 [1]) [%] | normalised viability (BT-549 [2]) [%] | normalised viability (HDQ-P1 [3]) [%] | normalised viability (MDA-MB-436 [4]) [%] | normalised viability (MDA-MB-231 [5]) [%] | normalised viability (MDA-MB-468 [6]) [%] | normalised viability (BT-474 [7]) [%] | normalised viability (CAL-148 [8]) [%] | normalised viability (HCC1599 [9]) [%] | normalised viability (HCC1143 [10]) [%] | normalised viability (MDA-MB-453 [11]) [%] | normalised viability (CAL-120 [12]) [%] | normalised viability (DU-4475 [13]) [%] | normalised viability (HCC1937 [14]) [%] | normalised viability (CAL-51 [15]) [%] | normalised viability (Hs578T [16]) [%] | normalised viability (SK-BR-3 [17]) [%] | normalised viability (MFM-223 [18]) [%] | normalised response (CAL-85-1 [19]) [%] | normalised response (BT-549 [20]) [%] | normalised response (HDQ-P1 [21]) [%] | normalised response (MDA-MB-436 [22]) [%] | normalised response (MDA-MB-231 [23]) [%] | normalised response (MDA-MB-468 [24]) [%] | normalised response (BT-474 [25]) [%] | normalised response (CAL-148 [26]) [%] | normalised response (HCC1599 [27]) [%] | normalised response (HCC1143 [28]) [%] | normalised response (MCF-10A) [%] | normalised response (MDA-MB-453 [29]) [%] | normalised response (CAL-120 [30]) [%] | normalised response (DU-4475 [31]) [%] | normalised response (HCC1937 [32]) [%] | normalised response (CAL-51 [33]) [%] | normalised response (Hs578T [34]) [%] | normalised response (SK-BR-3 [35]) [%] | normalised response (MFM-223 [36]) [%]
Cc1ccc(C(=O)N(CCCN)[C@@H](c2oc3cc(Cl)ccc3c(=O)c2Cc2ccccc2)C(C)C)cc1 (0.1 nM) | 86.1 | 100 | 126 | 111 | 90.4 | 97.3 | 68.8 | 111 | 108 | 101 | 101 | 90.3 | 95.9 | 93 | 103 | 135 | 105 | 105 | 96 | 99.1 | 100 | 106 | 98.7 | 89.2 | 97.8 | 101 | 101 | 96.8 | 90.2 | 100 | 100 | 96 | 101 | 98.9 | 102 | 89 | 93.2
CO[C@H]1/C=C\C=C(/C)C(=O)NC2=CC(=O)C(NCCN(C)C)=C(C[C@@H](C)C[C@H](OC)[C@H](O)[C@@H](C)/C=C(\C)[C@@H]1OC(N)=O)C2=O [Alvespimycin] (0.1 nM) | 102 | 91.9 | 105 | 98 | 99.7 | 104 | 102 | 102 | 76 | 103 | 99.2 | 100 | 108 | 113 | 92.8 | 117 | 104 | 99.9 | 100 | 105 | 94.8 | 97.5 | 98.5 | 116 | 105 | 106 | 112 | 95.1 | 101 | 111 | 105 | 109 | 92.7 | 69.6 | 91.2 | 111 | 107
CCC1(c2ccc(N)cc2)CCC(=O)NC1=O (centres undefined) [Aminoglutethimide] (1 nM) | 115 | 93.2 | 92.7 | 98.2 | 85.4 | 97.1 | 91.1 | 107 | 95.7 | 109 | 89.7 | 110 | 98.7 | 97.3 | 86.1 | 107 | 90 | 108 | 109 | 106 | 98.4 | 87.3 | 110 | 104 | 103 | 108 | 91.7 | 97 | 97.8 | 98.6 | 106 | 99.1 | 96.2 | 112 | 96.9 | 103 | 99.8
Cn1c(CCCC(=O)O)nc2cc(N(CCCl)CCCl)ccc21 [Bendamustine] (1 nM) | 90.2 | 106 | 65.9 | 109 | 116 | 110 | 108 | 108 | 107 | 112 | 109 | 90.5 | 111 | 103 | 102 | 104 | 93.2 | 94.8 | 105 | 101 | 102 | 97.5 | 106 | 108 | 107 | 116 | 99.5 | 104 | 103 | 127 | 99.5 | 108 | 103 | 75.8 | 99.8 | 117 | 106
C=C(c1ccc(C(=O)O)cc1)c1cc2c(cc1C)C(C)(C)CCC2(C)C [Bexarotene] (1 nM) | 102 | 88.7 | 84.7 | 82.5 | 86.1 | 105 | 81.1 | 105 | 101 | 110 | 83.5 | 115 | 82.5 | 108 | 94.1 | 111 | 94.8 | 99.6 | 99.7 | 103 | 102 | 89.5 | 107 | 109 | 103 | 107 | 98.9 | 99.7 | 99.8 | 111 | 99.6 | 99.6 | 100 | 105 | 93.2 | 102 | 97.5
COc1cc2nccc(Oc3ccc(NC(=O)C4(C(=O)Nc5ccc(F)cc5)CC4)cc3)c2cc1OC [Cabozantinib] (0.1 nM) | 90.2 | 115 | 96.1 | 103 | 115 | 105 | 100 | 107 | 77.6 | 95.4 | 99.4 | 83.8 | 101 | 94.8 | 103 | 97.4 | 101 | 93 | 97.1 | 102 | 95.2 | 83.3 | 104 | 103 | 101 | 99.7 | 113 | 96.2 | 92.2 | 116 | 103 | 95.2 | 100 | 87.8 | 100 | 97.5 | 99.5
C[C@@H](Oc1cc(-c2cnn(C3CCNCC3)c2)cnc1N)c1c(Cl)ccc(F)c1Cl [Crizotinib] (1 nM) | 83.9 | 75.4 | 61.5 | 74.1 | 93.3 | 91.4 | 113 | 101 | 85.4 | 86.5 | 95.3 | 90.6 | 101 | 105 | 108 | 90.5 | 98.5 | 87.8 | 96.6 | 91.8 | 96.4 | 103 | 108 | 99.8 | 101 | 91.3 | 106 | 102 | 94.9 | 100 | 91.7 | 105 | 105 | 117 | 101 | – | 101
C[C@]12CC[C@@H]3c4ccc(O)cc4C[C@@H](CCCCCCCCC[S+]([O-])CCCC(F)(F)C(F)(F)F)[C@H]3[C@@H]1CC[C@@H]2O (some centres undefined) [Fulvestrant] (1 nM) | 78.7 | 89.9 | 93.6 | 106 | 79 | 93.2 | 70.6 | 102 | 94.6 | 79.1 | 100 | 77.8 | 97.6 | 87.6 | 111 | 90.2 | 108 | 74.9 | 101 | 98.4 | 99.3 | 105 | 101 | 97.8 | 103 | 103 | 90.3 | 105 | 103 | 112 | 97.4 | 102 | 96.9 | 119 | 111 | – | 104
